# In patent publication US9119845B2, “Method for the treatment of neurological disorders by enhancing the activity of beta-glucocerebrosidase” (Amicus Therapeautics, Inc., priority 2006, dated 2015):
# Where a name gives a salt, the structure may show the parent alone. Read-outs that look alike come from different tables or passages of the source.
# Experiments:
# GCase [1] = biological target: T1, GCase (Homo sapiens (Human), UniProt P04062); test: biochemical
# GCase [2] = biological target: T1, GCase; conditions: read-out: IC50 for GCase; printed in synthesis headings
# α-synuclein [3] = test: α-synuclein accumulation in brains of V394L homozygous knock-in mice treated with CBE; type: in vivo, mouse; conditions: CBE daily intraperitoneally for 30 days
# Procedure: Mice homozygous for the point mutations D409H or V394L and expressing a low level of saposin C in a prosaposin knock-out background, were analyzed for accumulation of α-synuclein in the brain. These mice have been reported to accumulate glucosylceramide in the brain. Mice homozygous for the point mutations V394L only, were analyzed for α-synuclein accumulation with and without CBE treatment. […] Mice were administered CBE daily by interperitonally injection for 30 consequitive days ([…] calculated from the total weight of the mouse) and brains were analyzed by immunohistochemistry for accumulation of α-synuclein.
# Brain tissue was frozen and fixed for immunohistochemistry with 4% paraformaldehyde and serial sections were co-labelled with anti-human α-synuclein (ab1903; Abcam, Cambridge, Mass.) and rabbit anti-ubiquitin (ab7780; Abcam, Cambridge, Mass.).
# α-galactosidase A = α-galactosidase A (Homo sapiens (Human), UniProt P06280); conditions: healthy volunteers, 50 mg b.i.d. and 150 mg b.i.d.; cited from earlier work
# wild-type GCase = wild-type GCase (Mus musculus (Mouse), UniProt P17439); test: In vivo GCase activity in normal C57BL6 mice upon treatment with IFG
# Procedure: This Example provides information on the effects of isofagomine, a GCase-specific chaperone on mice. IFG were administered to the mice at 200 mg/kg/day; organs and plasma were collected 4 weeks after initiation of the study. Ten male C57BL6 (25 g) mice per group were used. The drug was be given in the drinking water, therefore water consumption was monitored daily.
# In the control group (0 mg/kg/day), the mice were dosed daily in the drinking water (no drug) and divided into two groups. Ten animals were euthanized after 4 weeks of treatment, blood was collected from the descending aorta or vena cava, and tissues were harvested and then necropsied.
# In the test group, 10 mice were dosed daily in the drinking water with an administration aim of 200 mg/kg/day.
# The blood samples were drawn into lithium heparin and spun for plasma. After bleeding, the spleen, lung, brain and liver were removed and placed into vials. The vials were put into dry ice for rapid freezing. The tissues and plasma were then analyzed for tissue levels of GCase.
# Small portions of tissue were removed and added to 500 μl lysis buffer (20 mM sodium citrate and 40 mM disodium hydrogen phosphate, pH 4.0, including 0.1% Triton X-100). Tissues were then homogenized using a microhomogenizer for a brief time, followed by centrifugation at 10,000 rpm for 10 minutes at 4° C. Supernatants were transferred to a new tube and used for the enzyme assay.
# The enhancement ratio is equal to the activity with the compound over the activity without the compound.
# [4] = Phase I studies in healthy volunteers: pharmacokinetics of oral IFG tartrate; type: in vivo, human; conditions: for half-life: both sexes, human, plasma
# Procedure: (§1) In a first-in-human single ascending dose study (1a), doses of 8, 25, 75, 150 (two cohorts), and 300 mg were administered (6 active, 2 placebo in each cohort). In a multiple ascending dose study (1b), doses of 25, 75, and 225 mg were administered daily for seven days (6 active, 2 placebo in each cohort). In both studies, of the eight subjects in each group; six were randomized to receive IFG tartrate, and two subjects received placebo. Subjects were confined from the evening of day-1 until 24 hrs after completion of dosing. In the phase 1a study subjects returned at 48 hrs (PK sampling) and 7 days (safety follow-up) following dosing. In the phase 1b study subjects returned at 48 h (PD sampling), 7 days (PD sampling and safety follow-up), and 14 days (PD sampling) following the last dose
# Subjects were healthy male and female volunteers between 19 and 55 years of age (inclusive) consisting of members of the community at large.
# Blood samples (10 mL each) were collected in blood collection tubes containing EDTA before dosing was determined at regular intervals for the phas 1a during 48 hr following dosing. In the phase 1b study a full IFG tartrate pharmacokinetic profile was determined for 24 hr following the first dose, Cmin values were obtained pre-dose on day 6 and 7, and another full profile was determined for 24 hr following the final, day 7, dose.
# (§2) GCase activity was determined pre-dose on days 1, 3, 5, 7, 9, 14, and 21. Blood samples were cooled in an ice bath and centrifuged under refrigeration as soon as possible. Plasma samples were divided into two aliquots and stored at […] pending assay. At the end of the study, all samples were transferred to MDS Pharma Services Analytical Laboratories (Lincoln) for analysis.
# GCase [5] = biological target: T1, GCase; test: Phase I multiple-dose study: GCase enzymatic activity in healthy volunteers; type: in vivo; conditions: dose-related, during treatment period, FIG. 2
# Procedure: as §1, §2
# [6] = Phase I studies in healthy volunteers: safety and tolerability; type: in vivo, human; conditions: both Phase I studies
# Procedure: as §1, with “last dose […]” for “last dose”
# Safety was determined by evaluating vital signs, laboratory parameters (serum chemistry, hematology, and urinalysis), physical examination and by recording adverse events during the Treatment Period.
# Safety data including laboratory evaluations, physical exams, adverse events, ECG monitoring and vital signs assessments were summarized by treatment group and point of time of collection. Descriptive statistics (arithmetic mean, standard deviation, median, minimum and maximum) were calculated for quantitative safety data as well as for the difference to baseline. […]
# α-synuclein [7] = test: α-synuclein immunohistochemistry in brains of transgenic mice over-expressing human α-synuclein; type: in vivo, mouse
# Procedure: 48 transgenic animals (male and female) were allocated to 6 groups (n=8) at an age of 5 to 6 weeks concerning baseline and 3 to 4 weeks, respectively concerning all other treatment groups at treatment start. One group of transgenic animals served as baseline group (5 weeks old) and was sacrificed untreated on day 0. One group of transgenic animals was treated with vehicle.
# Mice (ages 3-4 weeks) were treated once daily (orally) at either 2 mg/kg; 20 mg/kg; or 200 mg/kg of IFG tartrate for 3 months. One group also was treated once every other day at 20 mg/kg.
# Animals of the baseline group were sacrificed at an age of 5 weeks. All other animals were sacrificed at the end of the 3 months treatment period and blood for preparation of serum and macrophages as well as lung, brain and CSF were extracted. Therefore, all mice were sedated by standard inhalation anesthesia (Isofluran, Baxter). Cerebrospinal fluid was obtained by blunt dissection and exposure of the foramen magnum. Upon exposure, a Pasteur pipette was inserted to the approximate depth of 0.3-1 mm into the foramen magnum. CSF was collected by suctioning and capillary action until flow fully ceases. CSF was immediately frozen and kept at −80° C.
# The brains were removed and hemisected. The right hemispheres of all mice were immersion fixed in freshly produced 4% paraformaldehyde/PBS (pH 7.4) for one hour at room temperature. Thereafter brains were transferred to a 15% sucrose PBS solution for 24 hours to ensure cryoprotection. On the next day brains were frozen in liquid isopentane and stored at −80° C. until used for histological investigations. To determine the effects of the IFG-tartrate treatment from 8 animals per group 10 μm-thick cryosections were cut for determination of alpha-synuclein pathology. All organs and tissues mentioned were sampled and from specific brain regions i.e. hippocampus, midbrain, frontal cortex and striatum of one hemibrain were extracted and frozen. The other brain half was processed for histological evaluation.
# For evaluation of the number of α-synuclein positive cells and Lewy body like inclusions an immunohistochemical staining was carried out using the monoclonal human alpha-synuclein specific antibody (Alexis®; Cat #804-258-L001), dilution 1:5, detected with secondary Cy2 antibody (Jackson Immunoresearch®). The number of alpha-synuclein positive cells in five different layers, one slice per layer, was counted for evaluation in the whole hippocampus and cortex separately.
# Briefly, samples were washed for 10 min with PBS at room temperature, followed by fixing for 30 min at room temperature with 4% paraformaldehyde, followed by washing 2 times for 5 min each with PBS at room temperature. For Proteinase K-treated sections, sections were incubated in PBS containing 10 μg/ml proteinase-K for 10 minutes at room temperature. Next, samples were incubated for 15 min at room temperature with blocking solution to block endogenous peroxidase, followed by two more 5 min washes with PBS. Samples were then incubated for 60 min at room temperature with a blocking reagent to block non-specific binding, followed by two more 5 min washes with PBS. Samples were then incubated with M.O.M. diluent for 5 min at room temperature, followed by incubation with the primary antibody (dilution 1:5 in M.O.M. diluent) for 60 min with at room temperature.
# After an hour, samples were washed 2 times for 5 min with PBS at room temperature, and incubated for another 60 min at room temperature with blocking reagent. Following two washes, samples were incubated with secondary Ab Cy 2-Goat Anti-Rat (Dilution 1:200 in M.O.M.) for 60 minutes at room temperature, in the absence of light. Samples were then washed for 5 min with PBS, for 5 min with sterile, molecular-biology grade water, and covered with polyvinyl alcohol.
# For evaluation of the α-synuclein immunoreactivity, specialized image analysis software (Image Pro Plus, version 4.5.1.29) was used. […]
# [8] = normal C57BL6 mice, 200 mg/kg/day in drinking water, FIG. 1
# Chain of wild-type GCase (P17439 20-515): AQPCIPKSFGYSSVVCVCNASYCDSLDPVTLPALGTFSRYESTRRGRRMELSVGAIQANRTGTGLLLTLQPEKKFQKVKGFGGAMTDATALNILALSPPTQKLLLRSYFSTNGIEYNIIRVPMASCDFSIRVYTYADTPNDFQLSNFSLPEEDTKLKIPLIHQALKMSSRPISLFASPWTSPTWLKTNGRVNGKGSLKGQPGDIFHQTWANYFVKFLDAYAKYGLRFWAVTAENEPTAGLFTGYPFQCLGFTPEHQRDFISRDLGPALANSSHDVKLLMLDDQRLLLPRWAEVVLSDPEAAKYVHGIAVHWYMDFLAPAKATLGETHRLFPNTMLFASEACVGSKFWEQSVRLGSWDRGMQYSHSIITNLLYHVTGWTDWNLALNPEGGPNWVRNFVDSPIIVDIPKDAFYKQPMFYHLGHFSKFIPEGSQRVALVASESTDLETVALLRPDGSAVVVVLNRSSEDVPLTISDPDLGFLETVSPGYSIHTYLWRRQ
# T1 sequence (P04062 40-536): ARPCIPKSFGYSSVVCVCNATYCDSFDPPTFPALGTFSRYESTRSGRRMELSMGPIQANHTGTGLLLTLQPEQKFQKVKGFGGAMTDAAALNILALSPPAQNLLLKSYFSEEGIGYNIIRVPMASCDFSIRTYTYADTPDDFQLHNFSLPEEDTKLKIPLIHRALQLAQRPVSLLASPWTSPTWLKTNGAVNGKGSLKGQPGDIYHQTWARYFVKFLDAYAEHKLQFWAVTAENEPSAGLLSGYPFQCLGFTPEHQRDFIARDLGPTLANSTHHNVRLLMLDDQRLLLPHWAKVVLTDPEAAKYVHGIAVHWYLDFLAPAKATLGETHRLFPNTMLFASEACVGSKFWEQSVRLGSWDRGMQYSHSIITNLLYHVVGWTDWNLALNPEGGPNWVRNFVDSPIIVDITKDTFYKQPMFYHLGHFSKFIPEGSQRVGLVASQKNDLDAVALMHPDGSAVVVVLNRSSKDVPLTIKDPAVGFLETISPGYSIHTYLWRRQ
# Chain of α-galactosidase A (P06280 32-429): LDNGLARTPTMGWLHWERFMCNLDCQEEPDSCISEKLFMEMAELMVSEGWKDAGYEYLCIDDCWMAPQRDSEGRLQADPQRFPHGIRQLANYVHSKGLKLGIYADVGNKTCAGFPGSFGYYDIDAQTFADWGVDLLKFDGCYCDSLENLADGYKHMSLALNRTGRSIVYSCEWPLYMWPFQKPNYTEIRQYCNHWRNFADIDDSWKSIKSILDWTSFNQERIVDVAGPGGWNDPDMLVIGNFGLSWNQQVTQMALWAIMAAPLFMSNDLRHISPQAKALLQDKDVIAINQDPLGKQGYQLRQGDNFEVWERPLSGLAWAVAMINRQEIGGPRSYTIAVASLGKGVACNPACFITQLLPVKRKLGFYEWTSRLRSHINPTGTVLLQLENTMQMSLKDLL
structure (smiles),measurement,setting,value
"CC(C)(C)CCc1cn2c(n1)[C@H](O)[C@@H](O)[C@H](O)[C@H]2CO [(5R,6R,7S,8S)-5-Hydroxymethyl-2-(3,3-dimethylbutyl)-5,6,7,8-tetrahydro-imidazo[1,2-a]pyridine-6,7,8-triol]",IC50,GCase [1],~0.03 nM
"CCCCCCCCc1cn2c(n1)[C@H](O)[C@@H](O)[C@H](O)[C@H]2CO [(5R,6R,7S,8S)-5-Hydroxymethyl-2-n-octyl-5,6,7,8-tetrahydroimidazo[1,2-a]pyridine-6,7,8-triol]",IC50,GCase [1],~0.07 nM
"CC(C)(C)C#Cc1cn2c(n1)[C@H](OCc1ccccc1)[C@@H](OCc1ccccc1)[C@H](OCc1ccccc1)[C@H]2COCc1ccccc1 [(5R,6R,7S,8S)-6,7,8-Tris(benzyloxy)-5-[(benzyloxy)methyl]-2-(3,3-dimethylbyt-1-ynyl)-5,6,7,8-tetrahydroimidazo[1,2-a]pyridine]",IC50,GCase [2],~1.1 nM
"O[C@H]1[C@H](O)[C@@H](O)[C@@H]2O[C@@H]2[C@@H]1O [CBE, conduritol-β-epoxide]",α-synuclein in the brain,α-synuclein [3],resulted in accumulation of α-synuclein in the brain
"OC[C@H]1NC[C@H](O)[C@@H](O)[C@H]1O [DGJ, 1-deoxygalactonojirimycin]",α-galactosidase A activity in white blood cells,α-galactosidase A,dose-dependent increase
"OC[C@H]1CNC[C@@H](O)[C@@H]1O [IFG, (3R,4R,5R)-5-(hydroxymethyl)-3,4-piperidinediol]",GCase levels in brain,wild-type GCase; [8],increased
same,GCase levels in liver,wild-type GCase; [8],increased
same,GCase levels in lung,wild-type GCase; [8],increased
same,GCase levels in spleen,wild-type GCase; [8],increased
same,"wild-type GCase activity, dose response","wild-type GCase; separate experiment, mice treated with 0, 1, 10, or 100 mg/kg/day",linear dose-response increase
same,half-life,"[4]; oral, repeated doses of 25 to 225 mg, read-out: mean half-lives",5.14 to 19.9 h
same,accumulation based on AUC and Cmax comparisons on Day 1 and Day 7,[4]; repeated doses of 25 to 225 mg,Minimal accumulation
same,increase in GCase enzyme levels above baseline,GCase [5],approximately 3.5 fold
OC[C@H]1CNC[C@@H](O)[C@@H]1O [isofagomine tartrate],half-life,"[4]; single-dose study, oral, read-out: plasma elimination half-life (converted)",14 h
same,systemic exposure via the oral route,"[4]; healthy volunteers, oral",good systemic exposure
same,pharmacokinetic behavior and accumulation after 7 days of oral administration,"[4]; multiple-dose study, 25, 75, 225 mg daily for seven days","linear with dose, with no unexpected accumulation"
same,plasma AUC and Cmax versus dose,"[4]; single-dose study, 8 to 300 mg oral",linearly correlated with administered dose
same,time at which mean plasma levels peaked,"[4]; single-dose study, oral",3.4 h
same,serious adverse events,[6],No serious adverse events occurred
same,tolerability,[6]; all doses,generally well tolerated
same,"α-synuclein positive cell load versus baseline, both regions averaged","α-synuclein [7]; 2 mg/kg daily for 3 months, p>0.05 versus baseline",prevented mice from the age-accompanied increase of pathology
same,number of α-synuclein immunoreactive cells in the hippocampus versus vehicle-treated controls,"α-synuclein [7]; 2 mg/kg once daily orally for 3 months, p<0.05, FIG. 6B",reduced the number of immunoreactive cells in the hippocampus significantly
same,α-synuclein pathology versus controls at 20 mg dose,α-synuclein [7]; 20 mg/kg daily or every other day for 3 months,not effective versus controls
same,accumulation of Proteinase K resistant α-synuclein aggregates,"α-synuclein [7]; 20 mg/kg, 3 months, single responding animal, FIG. 5",prevents the accumulation of these α-synuclein aggregates
same,qualitative α-synuclein staining in cortex and hippocampus,"α-synuclein [7]; 2 and 20 mg/kg b.w. daily, some of the treated animals, FIGS. 3 and 4",strongly decreased background and decreased α-synuclein positive cell numbers
same,α-synuclein pathology in the cortex,"α-synuclein [7]; oral treatment for 3 months, FIG. 6A",did not reach significance level
